In patent publication US20250034139A1, “AMINE COMPOUNDS HAVING ANTI-INFLAMMATORY, ANTIFUNGAL, ANTIPARASITIC, AND ANTICANCER ACTIVITY” (PHARMA CINQ, LLC, priority 2013, published 2025):
Marks after values point to notes of the source that are not given here.

Assays:
[1] = test system: imiquimod-induced dermatitis
Method: Topical imiquimod (IMQ), a toll-like receptor agonist, has been established as a model of Inflammatory skin diseases including psoriasis and atopic dermatitis. Dermal inflammatory changes and gene expression in mice treated with topical imiquimod mimic human psoriasis and dermatitis (van der Fits et al., 2009; Swindell et al., 2011). The effect of a set of compounds of the invention were tested in a mouse model of imiquimod-induced dermatitis, with topical tacrolimus and dexamethasone as comparators for assessing safety and efficacy relative to standard agents used to treat dermatitis in humans.
Commercial 0.1% tacrolimus ointment (ProTopic™[…]) was also used as an active comparator. Petrolatum containing 10% ethanol was used as a control treatment.
Female Balb/C mice (8 weeks old) were randomized and divided into groups of 5 animals each. Polyethylene collars were affixed to the mice to prevent them from easily scratching their ears. 5% imiquimod was applied to both ears of each mouse (20 microliters per ear) daily for 5 days, and then every other day for the full duration of the study. […] On day 7 after initiation of imiquimod, treatment with topical agents was started. Both ears of each mouse were treated with test ointments, with one compound per mouse.
Ear thickness and PASI assessments (Psoriasis Area and Severity Index, a standard psoriasis scoring system) were recorded twice per week throughout the study. The PASI score comprises the sum of evaluations of swelling, erythema and scaling on scales from 0 to 4; the maximum PASI score is 12, and the minimum, in unaffected skin, is 0).

[2] = test system: TPA induced chronic skin inflammation; experiment: Example E: TPA induced chronic skin inflammation mouse model, ear thickness; format: in vivo; settings: day 22, 0.05 mg/ear daily topical from day 7, TPA-treated mice
From the text: Objective: To evaluate the anti-inflammatory properties of compounds of the invention in a 12-O-tetradecanoylphorbol-13-acetate (TPA) induced chronic skin inflammation mouse model.
Topically applied phorbol esters such as TPA induce skin inflammation involving edema, macrophage and T cell infiltration and epidermal hyperplasia (Alford et al., 1992), and this system has been used as an animal model for dermatitis, mimicking aspects of human inflammatory skin disorders. TPA is also known as a tumor promoter, so that agents which inhibit hyperproliferative or angiogenic actions of TPA may inhibit tumor promotion.
Drug formulations: Compound AC was dissolved in isopropyl myristate:propylene glycol (1:1)+0.9% DMSO at the indicated concentrations. TPA was dissolved in acetone:water (99:1). Dexamethasone (0.06%) was dissolved in normal saline.
Mice: HSD-ICR(CD-1R) female mice at 8-10 weeks of age were used in this experiment.
Experimental Design: Mice were placed into six groups of 10 mice each. 20 μL of 0.01% TPA was administered to each ear on days 0, 2, 4, 7, 9, 11, 13, 15, 18, 20, and 22. 20 μL of AC at various concentrations or 20 μL of dexamethasone solution was applied to the ears daily beginning on day 7, after inflammatory changes in ear thickness were established. Ear thickness was measured with calipers every three days.

C[C@@H]1C[C@H]2[C@@H]3CCC4=CC(=O)C=C[C@]4(C)[C@@]3(F)[C@@H](O)C[C@]2(C)[C@@]1(O)C(=O)CO [Dexamethasone, reference compound]
Ear thickness, Mean ± SEM ([1]; imiquimod-treated mice, topical ointment 0.06% active drug (dexamethasone 0.03%, tacrolimus 0.1%)): 0.305 ± 0.111 | Body Weight (mean ± SEM), Final ([1]; mouse, in vivo): 18.1 ± 0.5 g | Body Weight (mean ± SEM), Initial ([1]; mouse, in vivo): 20.5 ± 0.6 g | D BW (g) ([1]; mouse, in vivo): −2.4 * g | Hair growth on the imiquimod-affected head area, in words ([1]; mouse, in vivo): remained hairless | PASI Score, Mean ± SEM ([1]; scale 0-12, topical ointment 0.06% active drug (dexamethasone 0.03%, tacrolimus 0.1%)): 4.525 ± 0.375 | Ear thickness (mm) [2]: 0.301 ± 0.0722 mm
